Measured values: BindingDB's records for doi:10.1016/0960-894X(95)00325-N (1995)
pKi: −log10 of the molar value.

Experiment: Binding affinity by its ability to displace [3H]DPDPE from delta receptor in homogenates of guinea pig brain

Row | SMILES | pKi
1 | COc1cccc2c1[C@]13CCN(CC4CC4)[C@H](C2)[C@]1(OC)CCC(=O)C3 [Naltrindole analogue] | 6.98
2 | COc1cccc2c1[C@]13CCN(CCc4ccccc4)C(C2)[C@]1(OC)CCC(=O)C3 [3,10-dimethoxy-17-phenethyl-17-azatetracyclo[7.5.3.01,10.02,7]heptadeca-2(7),3,5-trien-13-one; with HBr] | 7.31
3 | COc1cccc2c1[C@]13CCN(C)[C@H](C2)[C@]1(OC)CCC(=O)C3 [3,10-dimethoxy-17-methyl-(10S)-17-azatetracyclo[7.5.3.01,10.02,7]heptadeca-2(7),3,5-trien-13-one] | 7.34
